The values below come from patent US20140323500A1, “NADPH OXIDASE 4 INHIBITORS AND USE THEREOF” (GENKYOTEX SA, priority 2011, published 2014).

In one assay the target is T1, human Nox4 (Homo sapiens, UniProt Q9NPH5).
T1 construct: expressed in transfected cells; host or cells: T-REx-293 (hNOX4 T-REx-293), tetracycline-induced; membrane fraction
T1 sequence (Q9NPH5 1-578): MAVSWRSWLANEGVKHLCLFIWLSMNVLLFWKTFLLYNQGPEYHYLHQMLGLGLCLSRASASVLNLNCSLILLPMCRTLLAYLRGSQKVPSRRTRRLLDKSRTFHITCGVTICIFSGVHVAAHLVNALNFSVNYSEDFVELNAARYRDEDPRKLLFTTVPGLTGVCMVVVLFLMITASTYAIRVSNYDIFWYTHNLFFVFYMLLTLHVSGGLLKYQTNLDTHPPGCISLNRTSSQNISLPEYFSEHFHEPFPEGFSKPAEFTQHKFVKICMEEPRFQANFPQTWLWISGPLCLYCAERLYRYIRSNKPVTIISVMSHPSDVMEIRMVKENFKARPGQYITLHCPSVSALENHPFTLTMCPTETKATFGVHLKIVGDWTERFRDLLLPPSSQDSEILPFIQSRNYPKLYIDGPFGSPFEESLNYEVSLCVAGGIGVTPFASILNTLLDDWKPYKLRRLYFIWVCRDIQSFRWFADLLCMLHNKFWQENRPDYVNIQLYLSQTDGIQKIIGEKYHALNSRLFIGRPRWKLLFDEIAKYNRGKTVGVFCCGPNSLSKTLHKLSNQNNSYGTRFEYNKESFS
T1 sequence (P13498 2-195 partner limits assumed): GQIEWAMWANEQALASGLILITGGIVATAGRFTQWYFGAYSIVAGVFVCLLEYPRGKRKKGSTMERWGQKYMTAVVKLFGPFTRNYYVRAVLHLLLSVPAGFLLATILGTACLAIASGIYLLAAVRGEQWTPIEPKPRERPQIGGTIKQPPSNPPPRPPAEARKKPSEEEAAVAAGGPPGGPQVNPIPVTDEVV
In words: ROS production by membranes expressing human Nox4, cell-free Amplex Red assay. It is filed as biochemical. The conditions noted are these: for Ki: read-out: Ki hNox4. The gist of the method: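 Membranes from tetracycline-induced (1 μg/ml, 24 h) T-REx cells overexpressing human Nox4, incubated in PBS with Amplex Red, HRP and co-factors; NADPH starts ROS production. Compounds 1 nM-100 μM, 20 min at 37° C.; fluorescence (ex 544/em 590 nm) over 10 min; Ki via Cheng-Prusoff, ≥3 experiments in triplicate.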

A further assay relates to murine M-CSF-primed BMNC. In words: RANKL-induced increase in cytosolic Ca2+ by Fura2 fluorescence. Type of assay: cell-based, mice. The conditions noted are these: 20 μmol/L co-applied with RANKL during stimulation (30 hours); wildtype cells; FIG. 4B. From the text: A: comparison of cells from wildtype and Nox4−/− mice; B: Effect of a Nox4 inhibitor (Compound (1) or solvent on calcium concentrations in wildtype cells; n≧3; *p<0.05.
Epiphyseal ends of the femora and tibiae were cut off and the bone marrow was flushed out with DMEM containing 10% FCS. Bone marrow stromal cells were collected and plated at a density of 2×10^6 cells/cm^2 in α-MEM containing 10% FCS and 1% penicillin/streptomycin. Following attachment, medium was replaced by basal medium supplemented with 25 ng/ml M-CSF (R&D Systems) for 2 days. Thereafter, cells were cultured for additional 6 days in differentiation medium containing 25 ng/ml M-CSF and 50 ng/ml RANKL (R&D Systems). TRAP staining was performed using the leukocyte acid phosphatase kit (Sigma) following the manufactures instructions according to Mukherjee et al., 2008, supra.
The role of Nox4 for the RANKL-induced increase in cytosolic Ca^2+ was investigated by FURA2 fluorescence as described below. […]
Cells were grown on 96 well plates and differentiated with or without RANKL as described above. […] After another washing step intracellular free Fura-2 and Ca^2+-bound Fura-2 was measured at the wavelength 340 and 380 nm by the ELISA Reader EnVision (PerkinElmer) in 100 μl HEPES Tyrode. […] Eventually the intracellular Ca^2+ was calculated as described by Grynkiewicz et al., 1985, J. Biol. Chem., 260(6):3440-3450.

Assay [1] has as its system xanthine/xanthine oxidase. In words: Antioxidant activity in an assay of Example 1 (ROS production by xanthine/xanthine oxidase, Amplex Red). Type of assay: biochemical. The conditions noted are these: as measured in an assay of Example 1. How it is done: Reactive Oxygen Species (ROS) production by membranes expressing either human Nox1, or human Nox2 or human Nox4 or human Nox5 or by xanthine/xanthine oxidase were measured using the Amplex Red (AR) method following a slightly modified version of the manufacturer's instruction manual (Invitrogen). Briefly, membranes or xanthine were incubated in PBS with Amplex Red, Horse Radish Peroxidase (HRP) and appropriated co-factors. ROS production was induced by addition of NADPH to NOX-expressing membrane or by addition of xanthine to xanthine oxidase. Non-specific signal was measured in the absence of membranes or in the absence of xanthine.
Antagonist activity of compounds was measured in the presence of increasing concentrations ranging from 1 nM to 100 μM. After an incubation of 20 min in a plate shaker and incubator (Titramax 1000, VWR) at 37° C. with weak agitation (300 rpm), ROS levels were measured for 10 min in a BMG Fluostar microplate reader with excitation and emission wavelengths of 544 nm and 590 nm respectively.

The next assay addresses T2, human Nox2 (Homo sapiens, UniProt P04839).
T2 construct: host or cells: T-REx-CHO (hNOX2 T-REx-CHO), tetracycline-induced; membrane fraction
T2 sequence (P04839 2-570 limits assumed): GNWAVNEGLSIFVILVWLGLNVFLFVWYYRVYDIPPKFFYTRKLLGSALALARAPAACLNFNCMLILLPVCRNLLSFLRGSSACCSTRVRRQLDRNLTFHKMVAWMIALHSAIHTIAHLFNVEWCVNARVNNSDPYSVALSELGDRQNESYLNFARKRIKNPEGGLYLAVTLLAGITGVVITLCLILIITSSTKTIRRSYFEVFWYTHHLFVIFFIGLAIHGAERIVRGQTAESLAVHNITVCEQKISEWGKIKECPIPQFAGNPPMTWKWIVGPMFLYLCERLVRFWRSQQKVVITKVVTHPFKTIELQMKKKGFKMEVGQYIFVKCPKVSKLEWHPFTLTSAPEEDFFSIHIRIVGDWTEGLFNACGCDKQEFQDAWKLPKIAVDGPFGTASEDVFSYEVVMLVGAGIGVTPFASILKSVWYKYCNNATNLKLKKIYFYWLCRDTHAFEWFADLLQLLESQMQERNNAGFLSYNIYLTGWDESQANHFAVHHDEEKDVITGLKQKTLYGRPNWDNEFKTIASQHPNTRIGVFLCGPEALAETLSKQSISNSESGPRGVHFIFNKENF
T2 sequence (P13498 2-195 partner limits assumed): T1 sequence (P13498 2-195 partner limits assumed)
In words: ROS production by membranes expressing human Nox2, cell-free Amplex Red assay. It is filed as biochemical. Conditions: read-out: Ki hNox2. In outline:
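Membranes from tetracycline-induced (1 μg/ml, 24 h) T-REx-CHO cells stably expressing hNox2 with p22 and cofactors, incubated in PBS with Amplex Red, HRP and cofactors; NADPH starts ROS production. Compounds 1 nM–100 μM, 20 min at 37 °C, then fluorescence (544/590 nm) read for 10 min; Ki by Cheng-Prusoff.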

Assay [2] has as its system female mice subjected to ovariectomy. Nature of the assay: Ovariectomy-induced osteoporosis (bone loss) in mice. Type of assay: in vivo. Conditions: distal femur 6 weeks after ovariectomy, compound 1 at 20 and 60 mg/kg, pamidronat 10 mg/kg once a week, microCT. How it is done: BMD of the left femur was measured by peripheral quantitative computed tomography (QCT) using an XCT Research QCT machine (Stratec Medizintechnik, Pforzheim, Germany). One slice (0.2 mm thick) in the mid-diaphysis of the femur and 3 slices in the distal femoral metaphysis located 1.5, 2, and 2.5 mm proximal to the articular surface of the knee joint were measured. BMD values of the distal femoral metaphysic were calculated as the mean of 3 slices. A voxel size of 0.070 mm and a threshold of 710 mg/cm^3 were used for calculation of BMD as described in Hofbauer et al., 2009, Arthritis Rheum., 60(5):1427-1437.
The control group received daily gavages by the solvent.
To study the latter effect, female mice were subjected to ovariectomy to induce osteoporosis and the effect of pharmacological inhibition of Nox4 with a Nox4 inhibitor as well as acute genetic knockout of the protein was studied. For this, mice were subjected to ovariectomy 8 weeks after birth and treatment at 60 mg/kg with a Nox4 inhibitor of the invention was started 2 days after the operation and continued throughout the study (6 weeks).
3, Hamburg was used which completely blocks osteoclast activity. […] For this, bones were scanned with a skyscan 1176 and bone density was analysed with the integrated software using two phantoms with 0.25 g/cm^3 and 0.75 g/cm^3 as reference. A 2 mm portion of the femur from the tibia plateau was analysed for total and trabecular bone density by the software provided by the manufacturer of the machine. […] For this method, the femurs were loaded to failure by 3-point bending tests using a Zwick Z020/TN2A materials testing machine (Zwick, Ulm, Germany) with a 1 kN force detector, and a force resolution of 0.01N. The distance between the lower supports for the bending tests was 5 mm. Crosshead speed during testing was 0.2 mm/minute for all measurements. From the force-displacement data, ultimate force (Fmax; in N) was calculated.

[3] abbreviates: cell-free membranes, Amplex Red, Cheng-Prusoff, average of at least three experiments in triplicate.

Like-named read-outs stand apart in the source and are kept apart here.

xanthine/xanthine oxidase, sequence (P47989 whole entry): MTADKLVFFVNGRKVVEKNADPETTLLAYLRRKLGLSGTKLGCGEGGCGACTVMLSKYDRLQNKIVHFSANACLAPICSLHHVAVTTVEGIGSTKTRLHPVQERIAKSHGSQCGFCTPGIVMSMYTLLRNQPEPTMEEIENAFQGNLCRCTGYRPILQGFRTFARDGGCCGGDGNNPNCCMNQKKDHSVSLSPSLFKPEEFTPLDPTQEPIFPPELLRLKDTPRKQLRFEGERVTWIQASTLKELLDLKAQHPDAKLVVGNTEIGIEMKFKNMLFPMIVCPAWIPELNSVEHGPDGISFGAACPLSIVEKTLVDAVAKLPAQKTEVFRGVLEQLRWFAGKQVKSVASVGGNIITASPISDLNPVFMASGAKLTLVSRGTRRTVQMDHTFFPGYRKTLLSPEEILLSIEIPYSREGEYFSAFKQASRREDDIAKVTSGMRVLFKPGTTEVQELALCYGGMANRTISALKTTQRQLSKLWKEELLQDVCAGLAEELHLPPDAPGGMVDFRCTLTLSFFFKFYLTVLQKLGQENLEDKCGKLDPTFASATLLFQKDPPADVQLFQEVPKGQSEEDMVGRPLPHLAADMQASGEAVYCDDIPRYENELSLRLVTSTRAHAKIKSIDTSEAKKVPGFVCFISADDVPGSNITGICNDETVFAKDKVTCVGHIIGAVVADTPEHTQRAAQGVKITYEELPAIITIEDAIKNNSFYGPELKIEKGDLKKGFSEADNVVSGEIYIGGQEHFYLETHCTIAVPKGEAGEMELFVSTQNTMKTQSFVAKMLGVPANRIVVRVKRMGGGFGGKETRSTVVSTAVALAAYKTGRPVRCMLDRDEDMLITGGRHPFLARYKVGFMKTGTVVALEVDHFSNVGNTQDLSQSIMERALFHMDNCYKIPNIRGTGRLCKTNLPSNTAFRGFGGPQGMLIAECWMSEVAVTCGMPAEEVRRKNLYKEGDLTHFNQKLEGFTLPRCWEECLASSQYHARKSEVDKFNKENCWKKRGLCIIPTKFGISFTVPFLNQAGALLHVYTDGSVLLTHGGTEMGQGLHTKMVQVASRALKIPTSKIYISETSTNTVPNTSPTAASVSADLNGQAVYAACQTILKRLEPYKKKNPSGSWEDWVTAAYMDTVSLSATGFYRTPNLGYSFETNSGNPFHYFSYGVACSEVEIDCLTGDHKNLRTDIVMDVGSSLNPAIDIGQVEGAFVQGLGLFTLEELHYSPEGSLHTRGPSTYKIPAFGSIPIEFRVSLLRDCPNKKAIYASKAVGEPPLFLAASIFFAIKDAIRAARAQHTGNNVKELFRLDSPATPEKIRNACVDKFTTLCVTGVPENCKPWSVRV

With `CN(C)c1cccc(-c2c3c(=O)n(-c4ccccc4Cl)[nH]c3cc(=O)n2C)c1` [2-(2-chlorophenyl)-4-[3-(dimethylamino)phenyl]-5-methyl-1H-pyrazolo[4,3-c]pyridine-3,6(2H,5H)-dione], the “IC50 for Nox4 relative to Nox2” value against human Nox4 (Nox4 versus Nox2, assay of Example 1) was “approximately 10 fold”. Moreover, the “RANKL induced increase in cytosolic Ca2+” value with murine M-CSF-primed BMNC was “prevented the RANKL induced increase in cytosolic Ca^2+”. Further, the antioxidant activity result in assay [1] is given as “no antioxidant activity”.
As for `O=c1c2c(-c3cc(F)ccc3F)n(Cc3ccncc3)c(=O)cc2[nH]n1-c1ccccc1Cl` [(35), 2-(2-chlorophenyl)-4-(2,5-difluorophenyl)-5-(pyridin-4-ylmethyl)-1H-pyrazolo[4,3-c]pyridine-3,6(2H,5H)-dione], the Ki on human Nox4 (setting [3]) is 119 nM; at human Nox2 (setting [3]), 665 nM.
For `O=c1c2c(-c3ccc(Cl)cc3)n(Cc3nccs3)c(=O)cc2[nH]n1-c1ccccc1Cl` [(36), 2-(2-chlorophenyl)-4-(4-chlorophenyl)-5-(1,3-thiazol-2-ylmethyl)-1H-pyrazolo[4,3-c]pyridine-3,6(2H,5H)-dione], in that order: 125 nM and 1160 nM.
Taken in the same sequence, the figures for `O=c1c2c(-c3cc(Cl)cc(Cl)c3)n(Cc3ccncc3)c(=O)cc2[nH]n1-c1ccccc1Cl` [(37), 2-(2-chlorophenyl)-4-(3,5-dichlorophenyl)-5-(pyridin-4-ylmethyl)-1H-pyrazolo[4,3-c]pyridine-3,6(2H,5H)-dione] were 128 nM and 950 nM.
For `CN(C)c1cccc(-c2c3c(=O)n(-c4ccccc4Cl)[nH]c3cc(=O)n2Cc2cccnc2)c1` [(39), 2-(2-chlorophenyl)-4-[3-(dimethylamino)phenyl]-5-(pyridin-3-ylmethyl)-1H-pyrazolo[4,3-c]pyridine-3,6(2H,5H)-dione], in that order: 149 nM and 1500 nM.
As to `O=c1c2c(-c3cc(F)ccc3F)n(Cc3cccnc3)c(=O)cc2[nH]n1-c1ccccc1Cl` [(42), 2-(2-chlorophenyl)-4-(2,5-difluorophenyl)-5-(pyridin-3-ylmethyl)-1H-pyrazolo[4,3-c]pyridine-3,6(2H,5H)-dione], the Ki at human Nox4 (setting [3]) is 159 nM; at human Nox2 (setting [3]), 540 nM.
Turning to `CCC(C)(C)C(=O)O[C@H]1C[C@@H](C)C=C2C=C[C@H](C)[C@H](CC[C@@H]3C[C@@H](O)CC(=O)O3)[C@H]21` [Simvastatin, reference compound], the Ki on human Nox4 (Simvastatin comparison) was greater than 133000 nM; at human Nox2 (Simvastatin comparison), greater than 162000 nM.
For the compound `NCCC(O)(P(=O)(O)O)P(=O)(O)O` [pamidronat, reference compound], the “absolute bone density (total)” value in assay [2] (FIG. 6A) is given as “increased absolute bone density”. Moreover, the “absolute trabecular bone density” value in assay [2] (FIG. 6B) is reported as “increased”. For the same compound, the “relative inhibition of ovarectomy-induced total bone loss” value in assay [2] (FIG. 6C) was roughly 50%. In assay [2] (FIG. 6D), the “relative inhibition of trabecular bone loss” value is on record as “approximately 60%”.

One may read the Ki as the dissociation constant of the complex between target and ligand, obtained from inhibition or displacement.
